# Experimental data published in patent US20090107495A1, “DEVICE FOR INHALATION OF MEDICINE” (NATIONAL INSTITUTE FOR MATERIALS SCIENCE, priority 2005, published 2009).
# What was measured:
# Assay type in all cases: physicochemical
# [1] = Solubility in ethanol
# [2] = Particle size of creatine adhered on PVP nano fiber, by scanning electron microscope; conditions: SEM, FIG. 1
# Excerpt: A commercially available electrospinning apparatus (HSP-30K-2 manufactured by Nippon Stabilizer Industry Co., Ltd.) was used, voltage (direct current of 15 kV) was applied between (the distance being 20 cm) a nozzle and an aluminum foil (manufactured by Mitsubishi Aluminum Company, Ltd.) on which a cotton mat (manufactured by Asahi Kasei Corporation) is placed attached to a collector of the apparatus and a 10 wt % ethanolic solution of polyvinylpyrrolidone (PVP) was sprayed at ambient temperature from the nozzle onto the cotton mat to form a matrix comprising a nano fiber of PVP on the surface of the cotton mat. A fiber diameter of the nano fiber of PVP constituting the matrix was measured by using a scanning electron microscope (SEM JSM-5400 manufactured by JOEL Ltd.) and found to be from 300 to 700 nm. The cotton mat where a matrix comprising a nano fiber of PVP was formed on the surface was attached onto a filter of a commercially available spray-drying apparatus (Buchi Mini Spray Drier B-290 manufactured by Nihon BUCHI K.K.) and a 1 wt % aqueous solution of creatine was spray-dried onto the matrix (outlet temperature of the nozzle: 180° C.; aspirator speed: 35%; pump speed: 5%) to give a cotton mat where a matrix comprising a nano fiber of PVP in which creatine particles were adhered on the surface was formed on the surface. As will be apparent from FIG. 1, the particle size of creatine adhered on the surface of the nano fiber of PVP was about 2 μm at the largest and many of the particles were in a size of from 100 nm to smaller than 1 μm.
# [3] = Exposure of the cotton mat to air stream similar to human inspiration, SEM picture after exposure
# Method: The cotton mat where the matrix comprising the nano fiber of PVP in which creatine particles were adhered on the surface was formed on the surface was exposed for 1 minute in air stream having the similar degree as human inspiration (velocity is 5 L/minute). A picture of the cotton mat after exposure taken under a scanning electron microscope (the same one as mentioned already) is shown in FIG. 2.
# [4] = spray-dried onto PVP nano fiber matrix on cotton mat
Structure (SMILES),solubility in ethanol [1],"particle size of creatine adhered on the surface of the nano fiber of PVP, at the largest ([2]; spray-dried from 1 wt % aqueous solution onto PVP nano fiber matrix on cotton mat)","particle size, many of the particles, lower limit [2, 4] [nm]","particle size, many of the particles, upper limit [2, 4]","stability of nano- to micron-size particles in air ([3]; adhered on PVP nano fiber matrix, no dispersing solvent)","detachment of particles adhered on the nano fiber of PVP ([3]; air stream 5 L/minute, 1 minute, SEM, FIG. 2)"
"O=c1c2ccccc2[se]n1-c1ccccc1 [Ebselen, 2-phenyl-1,2-benzoisoselenazol-3-(2H)-one]",hardly soluble,–,–,–,–,–
CN(CC(=O)O)C(=N)N [creatine],–,about 2 μm,≥ 100,smaller than 1 μm,stably retained even in air,detached by air stream
